In patent US12703704B2, “Process for preparing a composition comprising enantiomerically enriched pyrrolo[2,3-d]pyrimidines” (Sun Pharmaceutical Industries, Inc., priority 2020, dated 2026):

How the values were obtained:
JAK1 = JAK1 (Homo sapiens, UniProt P23458); assay: JAK1 inhibition (IC50); assay type: biochemical; settings: Compound A or a pharmaceutically acceptable salt thereof
JAK2 = JAK2 (Homo sapiens, UniProt O60674); assay: JAK2 inhibition (IC50); assay type: biochemical; settings: Compound A or a pharmaceutically acceptable salt thereof
Sequence of JAK2 (O60674 whole entry): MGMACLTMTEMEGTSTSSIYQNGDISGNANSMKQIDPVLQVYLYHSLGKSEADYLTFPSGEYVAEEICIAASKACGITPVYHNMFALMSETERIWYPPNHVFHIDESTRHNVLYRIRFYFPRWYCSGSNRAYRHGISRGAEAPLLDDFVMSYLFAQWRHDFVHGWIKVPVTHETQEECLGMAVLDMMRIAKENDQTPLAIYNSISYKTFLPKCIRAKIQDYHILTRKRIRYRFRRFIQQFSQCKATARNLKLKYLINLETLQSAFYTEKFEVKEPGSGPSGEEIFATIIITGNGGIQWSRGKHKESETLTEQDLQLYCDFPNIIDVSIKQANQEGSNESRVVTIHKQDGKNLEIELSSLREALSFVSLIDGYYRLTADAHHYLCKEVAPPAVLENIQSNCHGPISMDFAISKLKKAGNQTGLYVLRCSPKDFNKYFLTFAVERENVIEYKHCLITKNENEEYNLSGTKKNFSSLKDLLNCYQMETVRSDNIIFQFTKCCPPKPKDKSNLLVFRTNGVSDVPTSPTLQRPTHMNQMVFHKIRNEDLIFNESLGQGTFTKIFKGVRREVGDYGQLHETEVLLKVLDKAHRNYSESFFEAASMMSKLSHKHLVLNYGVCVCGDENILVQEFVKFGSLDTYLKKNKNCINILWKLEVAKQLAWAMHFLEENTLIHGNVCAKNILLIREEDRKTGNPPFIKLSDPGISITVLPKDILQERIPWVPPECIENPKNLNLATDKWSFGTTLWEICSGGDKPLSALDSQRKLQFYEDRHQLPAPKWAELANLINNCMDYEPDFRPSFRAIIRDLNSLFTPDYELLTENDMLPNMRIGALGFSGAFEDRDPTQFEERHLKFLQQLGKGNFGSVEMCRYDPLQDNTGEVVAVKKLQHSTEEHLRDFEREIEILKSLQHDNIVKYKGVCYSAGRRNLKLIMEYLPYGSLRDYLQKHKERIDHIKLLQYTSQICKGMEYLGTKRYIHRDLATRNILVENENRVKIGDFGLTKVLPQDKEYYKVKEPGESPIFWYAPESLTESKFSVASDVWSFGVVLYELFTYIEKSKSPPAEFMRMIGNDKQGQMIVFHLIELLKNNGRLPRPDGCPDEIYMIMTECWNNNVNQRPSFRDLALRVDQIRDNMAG

Sequence of JAK1 (P23458 whole entry): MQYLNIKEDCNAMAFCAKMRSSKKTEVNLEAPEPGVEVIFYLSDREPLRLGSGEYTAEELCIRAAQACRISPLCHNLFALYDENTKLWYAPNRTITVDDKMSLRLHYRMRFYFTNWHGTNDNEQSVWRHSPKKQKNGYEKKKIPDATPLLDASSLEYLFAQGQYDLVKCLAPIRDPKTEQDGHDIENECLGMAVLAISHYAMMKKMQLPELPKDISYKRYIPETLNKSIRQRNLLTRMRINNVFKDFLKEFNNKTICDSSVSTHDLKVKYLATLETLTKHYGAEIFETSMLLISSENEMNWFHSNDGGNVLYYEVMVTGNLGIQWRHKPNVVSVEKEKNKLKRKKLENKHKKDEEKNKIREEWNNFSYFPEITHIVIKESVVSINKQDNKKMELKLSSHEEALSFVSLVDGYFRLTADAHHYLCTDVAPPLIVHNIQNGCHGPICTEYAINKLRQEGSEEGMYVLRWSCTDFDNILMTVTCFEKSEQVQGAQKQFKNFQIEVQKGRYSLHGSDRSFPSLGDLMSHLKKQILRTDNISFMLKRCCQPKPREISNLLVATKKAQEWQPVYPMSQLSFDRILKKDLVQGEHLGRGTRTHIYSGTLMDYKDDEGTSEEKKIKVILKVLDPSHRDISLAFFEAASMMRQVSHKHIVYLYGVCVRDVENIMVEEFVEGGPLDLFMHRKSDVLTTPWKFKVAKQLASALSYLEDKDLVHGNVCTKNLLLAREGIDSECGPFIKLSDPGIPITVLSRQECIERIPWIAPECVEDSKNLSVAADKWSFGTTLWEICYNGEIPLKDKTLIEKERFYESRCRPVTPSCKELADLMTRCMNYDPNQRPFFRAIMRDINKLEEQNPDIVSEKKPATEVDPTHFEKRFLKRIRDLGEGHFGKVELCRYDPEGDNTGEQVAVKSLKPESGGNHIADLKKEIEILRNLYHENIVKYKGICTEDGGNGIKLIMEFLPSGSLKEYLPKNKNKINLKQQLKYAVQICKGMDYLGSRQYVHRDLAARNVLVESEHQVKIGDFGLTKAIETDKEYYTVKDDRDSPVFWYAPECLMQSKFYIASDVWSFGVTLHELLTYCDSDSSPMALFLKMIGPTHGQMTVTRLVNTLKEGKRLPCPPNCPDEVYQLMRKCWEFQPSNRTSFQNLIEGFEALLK

IC50 (JAK1): < 0.1 µM
IC50 (JAK2): < 0.1 µM
Structure (SMILES): [2H]C1([2H])C([C@@H](CC(N)=O)n2cc(-c3ncnc4[nH]ccc34)cn2)C([2H])([2H])C([2H])([2H])C1([2H])[2H] [Compound A, (R)-3-(4-(7H-pyrrolo[2,3-d]pyrimidin-4-yl)-1H-pyrazol-1-yl)-3-(cyclopentyl-2,2,3,3,4,4,5,5-d8) propanamide]
